Converted amounts (≈) assume the structure as drawn. “And” between values parts separate entries of the source, which are not always exact repeats. Equal entries are not always repeated. Where two headings read alike, the source gives them in different places.
Key:
[1] = tested on: U937 cells; assay: Cytotoxicity of compounds, cell density and viability; assay type: cell-based; conditions: 24 h
Protocol: U937 cells were grown to a density of 0.4×10^6 cells/mL Compounds were added to a final concentration of 20 μM or otherwise indicated. As a control, cells were treated with DMSO of the same volume. After 24 h incubation, the density and viability of the cells were measured with Countess Cell Counter according to the protocols from the manufacturer.

[2] = molecular target: T1, Rab7 GTPase (UniProt P18067); assay: Multiplex bead-based flow cytometry dose-response, BODIPY-FL-GTP binding to GST-tagged GTPase; conditions: for EC50: mean of n replicates; for % Res: percent response
T1 construct: fused on or other part: GST tag, used to hold the protein on glutathione beads

[3] = Solubility in PBS and assay media, UV absorbance detection; assay type: physicochemical
Protocol: Solubility was measured in phosphate buffered saline (PBS) at room temperature (23° C.). PBS by definition is 137 mM NaCl, 2.7 mM KCl, 10 mM sodium phosphate dibasic, 2 mM potassium phosphate monobasic and a pH of 7.4. Detection was based on UV absorbance. […]. Solubility was also assessed in the each of the four media used in the individual assays. […]

[4] = tested on: Ras-related GTPases (Cdc42 wt, Rac1wt, Rac1Q61L, Rab2 wt, Rab7 wt, and H-Ras wt); conditions: for Loss in potency across GTPases relative to CID1067700: compared across multiple/all GTPases; for Activity for all GTPases tested: multiplex GTPase screen
Protocol: The eight GTPases were grouped into two sets: Rab7, H-Ras wild type and its V12 mutant, and Cdc42 and its L61 mutant were assayed in a buffer containing 1 mM EDTA, while Rho, Rac1 and its L61 mutant, and Cdc42 and its L61 mutant were assayed in the same buffer but instead containing 1 mM Mg^2+ with Cdc42 and its mutant being tested in both buffers. Besides 1 mM EDTA or 1 mM Mg^2+, the buffer contained 30 mM HEPES, pH 7.5, 40 mM KCl, 100 mM NaCl, 0.1% (v/v) NP-40 and 1% BSA. For each multiplex reaction, an extra set of beads was included to serve as scavengers to bind any proteins that dissociate from their assigned bead set and thereby reduce interference due to protein dissociation during the assay. […] Briefly, each individual GST-tagged enzyme was incubated with 4 μm glutathione-coated microsphere beads overnight with gentle rotation. The microsphere beads have different red fluorescence dyes incorporated and therefore could be separated by a flow cytometer. The unbound enzyme was removed by sufficient washing with the buffer. The bead sets were then combined and dispensed to 384-well plates at 5 μL/well. For one plate, 0.5 μg each of the enzymes and 4.0×10^4 of each bead were used. Then 100 nL compound was added using Biomek FX followed by the addition of 5 μL/well of BODIPY-FL-GTP (ribose-linked BODIPY). […] The beads were aspirated and delivered with the HyperCyt® instrument and read on CyAnADP flow cytometer. Forward scatter and side scatter was used to define the whole bead population. […] The data was analyzed by the HyperView® software developed by Dr. Bruce Edward at the University of New Mexico.
Briefly, six sets of beads (each with a unique red fluorescence intensity) were individually coated with six representative GST-tagged Ras-related GTPases (Cdc42 wt, Rac1wt, Rac1Q61L, Rab2 wt, Rab7 wt, and H-Ras wt) (FIG. 29A). The individually conjugated beads were then assayed in the presence of individual compounds in the Molecular Libraries Small Molecule Repository using a HyperCyt flow cytometry to identify molecules that altered the binding of fluorescent nucleotide to Ras-family GTPases (36).

[5] = molecular target: Rab7 wt; conditions: previously determined (ref 33); read-out: Equilibrium dissociation constant Kd for wild-type Rab7; cited from earlier work
[6] = Assay format EDTA (1 mM EDTA buffer, 100 nM BODIPY-FL-GTP)
[7] = Assay format Mg (1 mM Mg2+ buffer, 1 nM BODIPY-FL-GTP)
[8] = 23 °C, pH 7.4, aqueous buffer, Solubility
[9] = pH 7.5, aqueous with cosolvent or surfactant or cyclodextrin, Solubility

| Compound | Cell viability of U937 cells after treatment ([1]; 20 μM) | EC50 [2, 6] | % Res ([2]; Assay format EDTA) | EC50 [2, 7] | % Res ([2]; Assay format Mg) | other results |
| --- | --- | --- | --- | --- | --- | --- |
| CC1(C)Cc2c(sc(NC(=S)NC(=O)c3ccccc3F)c2C(=O)O)CO1 [CID53301935, 2-(3-(2-fluorobenzoyl)thioureido)-5,5-dimethyl-5,7-dihydro-4H-thieno[2,3-c]pyran-3-carboxylic acid] | 96% | 140 ± 160 nM | 97 ± 15% | 170 ± 210 nM | 45 ± 2% |  |
| Cc1ccccc1C(=O)NC(=S)Nc1sc2c(c1C(=O)O)CC(C)(C)OC2 [CID53377404] |  | 410 nM | 95% | 520 nM | 47% |  |
| CC1(C)Cc2c(sc(NC(=S)NC(=O)c3ccccc3Br)c2C(=O)O)CO1 [CID53301931, 2-(3-(2-Bromobenzoyl)thioureido)-5,5-dimethyl-5,7-dihydro-4H-thieno[2,3-c]pyran-3-carboxylic acid] | 94% | 430 ± 680 nM | 86 ± 10% | 650 ± 870 nM | 35 ± 4% | solubility [3]: >93 μg/mL,; solubility [3, 8]: > 93 µg/mL and > 198 µM; solubility ([3]; pH 7.5): >93 μg/mL,; solubility ([3]; pH 7.5, read-out: Solubility): >198 µM; solubility ([3]; read-out: Solubility): >198 µM |
| CC1(C)Cc2c(sc(NC(=O)NC(=O)c3ccccc3)c2C(=O)O)CO1 [CID46916265, 2-(3-Benzoylureido)-5,5-dimethyl-5,7-dihydro-4H-thieno[2,3-c]pyran-3-carboxylic acid] |  |  |  |  |  | Cell viability of U937 cells after treatment ([1]; 100 μM): 98% (100 μM); Loss in potency across GTPases relative to CID1067700 [4]: 35 fold; Loss in potency across GTPases relative to CID1067700 ([4]; listed as SID 99381130): 7 fold |
| CC1(C)Cc2c(sc(NC(=S)NC(=O)C3CCCCC3)c2C(=O)O)CO1 [CID53377396] |  | 810 nM | 89% | 460 nM | 39% |  |
| BODIPY FL GTP 2′-(or 3′)-O—[N-(2-aminoethyl)urethane] [BODIPY-GTP] |  |  |  |  |  | Kd [5]: 100 nM |
| COc1ccc(C(=O)NC(=S)Nc2sc3c(c2C(=O)O)CC(C)(C)OC3)cc1 [CID53301932, 2-(3-(4-Methoxybenzoyl)thioureido)-5,5-dimethyl-5,7-dihydro-4H-thieno[2,3-c]pyran-3-carboxylic acid] | 96% | 140 ± 70 nM | 94 ± 14% | 140 ± 110 nM | 54 ± 2% |  |
| O=C(NC(=S)Nc1sc2c(c1C(=O)O)CCOC2)c1ccccc1 [CID46916266, 2-(3-benzoylthioureido)-5,7-dihydro-4H-thieno[2,3-c]pyran-3-carboxylic acid] |  |  |  |  |  | Cell viability of U937 cells after treatment ([1]; 100 μM): 92% (100 μM) |
| CC(C)(C)C1Cc2c(sc(NC(=S)NC(=O)c3ccccc3)c2C(=O)O)CO1 (stereo not drawn) [CID53377399] |  | 470 nM | 18% | 220 nM | 47% |  |
| COC(=O)c1c(NC(=S)NC(=O)c2ccccc2)sc2c1CC(C)(C)OC2 [CID1251121, Methyl 2-(3-benzoylthioureido)-5,5-dimethyl-5,7-dihydro-4H-thieno[2,3-c]pyran-3-carboxylate] |  |  |  |  |  | Activity for all GTPases tested [4]: complete loss of activity |
| COc1cccc(C(=O)NC(=S)Nc2sc3c(c2C(=O)O)CC(C)(C)OC3)c1 [CID53301934, 2-(3-(3-Methoxybenzoyl)thioureido)-5,5-dimethyl-5,7-dihydro-4H-thieno[2,3-c]pyran-3-carboxylic acid] | 94% | 150 ± 130 nM | 68 ± 25% | 320 nM | 37% | solubility [3]: 54.5 μg/mL,; solubility [3, 8]: 36.5 µg/mL and 86.8 µM; solubility ([3]; pH 7.5): 29.7 μg/mL,; solubility [3, 9]: 33.8 µg/mL and 80.4 µM; solubility ([3]; pH 7.5, read-out: Solubility): 70.6 µM (≈ 29.7 µg/mL); solubility ([3]; read-out: Solubility): 129.6 µM (≈ 54.5 µg/mL) |
| O=C(NC(=S)Nc1sc2c(c1C(=O)O)CC1(CCCC1)OC2)c1ccccc1 [CID53377403] |  | 35 nM | 72% | 33 nM | 56% |  |
| CC1(C)Cc2c(sc(NC(=S)NC(=O)c3ccco3)c2C(=O)O)CO1 [CID53377402] |  | 74 nM | 105% | 82 nM | 63% |  |
| CC1(C)Cc2c(sc(NC(=S)NC(=O)c3cccs3)c2C(=O)O)CO1 [CID53377398] |  | 25 nM | 103% | 25 nM | 56% |  |
| COc1ccccc1C(=O)NC(=S)Nc1sc2c(c1C(=O)O)CC(C)(C)OC2 [CID53377397] |  | 1120 nM | 52% |  |  |  |
| CCC1(C)Cc2c(sc(NC(=S)NC(=O)c3ccccc3)c2C(=O)O)CO1 (stereo not drawn) [CID53377401] |  | 37 nM | 109% | 35 nM | 43% |  |
| CC1(C)Cc2c(sc(NC(=O)Cc3ccccc3)c2C(=O)O)CO1 [CID740871, 5,5-dimethyl-2-(2-phenylacetamido)-5,7-dihydro-4H-thieno[2,3-c]pyran-3-carboxylic acid] |  |  |  |  |  | Activity for all GTPases tested [4]: complete loss of activity; Activity for all GTPases tested ([4]; listed as SID 9938117): inactive |
| CC1(C)Cc2c(sc(NC(=S)Nc3ccccc3)c2C(=O)O)CO1 [CID1280844, 5,5-dimethyl-2-(3-phenylthioureido)-5,7-dihydro-4H-thieno[2,3-c]pyran-3-carboxylic acid] |  |  |  |  |  | Activity for all GTPases tested [4]: inactive |
| Cc1ccc(C(=O)NC(=S)Nc2sc3c(c2C(=O)O)CC(C)(C)OC3)cc1 [CID53377395] |  | 140 nM | 102% | 97 nM | 40% |  |
| CC1(C)Cc2c(sc(NC(=S)NC(=O)c3cccc(F)c3)c2C(=O)O)CO1 [CID53301930] | 92% | 320 ± 90 nM | 90 ± 6% | 290 ± 190 nM | 39 ± 3% |  |
| CC1Cc2c(sc(NC(=S)NC(=O)c3ccccc3)c2C(=O)O)CO1 (stereo not drawn) [CID46916263, 2-(3-benzoylthioureido)-5-methyl-5,7-dihydro-4H-thieno[2,3-c]pyran-3-carboxylic acid] |  |  |  |  |  | Cell viability of U937 cells after treatment ([1]; 100 μM): 94% (100 μM) |
| CC1(C)CCc2sc(NC(=S)NC(=O)c3ccccc3)c(C(=O)O)c2C1 [CID53301937] | 91% | 66 ± 20 nM | 97 ± 5% | 63 ± 10 nM | 53 ± 1% |  |
| Cc1cccc(C(=O)NC(=S)Nc2sc3c(c2C(=O)O)CC(C)(C)OC3)c1 [CID53377400] |  | 1160 nM | 93% | 360 nM | 30% |  |
| CC1(C)Cc2c(sc(NC(=S)NC(=O)c3ccc(F)cc3)c2C(=O)O)CO1 [CID53377405, 2-(3-(4-Fluorobenzoyl)thioureido)-5,5-dimethyl-5,7-dihydro-4H-thieno[2,3-c]pyran-3-carboxylic acid] | 94% | 95 nM | 100% | 77 nM | 39% | solubility [3]: 67.6 μg/mL,; solubility [3, 8]: 85.7 µg/mL and 210 µM; solubility ([3]; pH 7.5): 69.1 μg/mL,; solubility [3, 9]: 98.2 µg/mL and 240 µM; solubility ([3]; pH 7.5, read-out: Solubility): 169.2 µM (≈ 69.1 µg/mL); solubility ([3]; read-out: Solubility): 165.5 µM (≈ 67.6 µg/mL) |
| CC1(C)Cc2c(sc(NC(=S)NC(=O)c3ccc(Br)cc3)c2C(=O)O)CO1 [CID53301933] | 93% | 300 ± 180 nM | 93 ± 6% | 270 ± 220 nM | 41 ± 6% |  |
| CC1(C)Cc2c(sc(NC(=S)NC(=O)c3cccc(Br)c3)c2C(=O)O)CO1 [CID53301936] |  | 2510 ± 2100 nM | 41 ± 0% | > 100000 nM |  |  |
